We go through 26 compounds from patent publication US11591341B2 (ALIGOS THERAPEUTICS, INC., priority 2019, dated 2023).

Molecules are shown by their SMILES.

The subject of this test is HBV. The test is described as follows: HBV-DNA Antiviral Assay Using HepG2.117 Cells (intracellular HBV DNA by qPCR). It is filed as cell-based, hepatitis B virus (genotype D). Particulars: Hepatitis B virus, HepG2.117. The procedure, abridged: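 HepG2.117 cells (genotype D HBV, Tet-off) were induced by doxycycline withdrawal and treated for 3 days with 9 concentrations in 4-fold dilution, 2% DMSO final. Intracellular HBV DNA was measured by qPCR against a standard curve, with ATPlite viability read in parallel. EC50, EC90 and CC50 came from fits against the DMSO control.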
As to `COc1ccc(-n2c(C(=O)NCc3cccc(OC)c3C)c3n(c2=O)CCN(C(=O)c2ccc(Br)c(Cl)c2)C3)cc1` [Example 155, 7-(4-bromo-3-chloro-benzoyl)-N-[(3-methoxy-2-methyl-phenyl)methyl]-2-(4-methoxyphenyl)-3-oxo-6,8-dihydro-5H-imidazo[1,5-a]pyrazine-1-carboxamide], the EC50 – broadly, the concentration needed to bring the measured effect to its halfway point – is 100 to 500 nM. To `COc1ccc(-n2c(C(=O)NCc3ccc(OC(C)C)cc3)c3n(c2=O)CCN(C(=O)c2ccc(Br)c(Cl)c2)C3)cc1` [Example 156, 7-(4-bromo-3-chloro-benzoyl)-N-[(4-isopropoxyphenyl)methyl]-2-(4-methoxyphenyl)-3-oxo-6,8-dihydro-5H-imidazo[1,5-a]pyrazine-1-carboxamide] belongs 100 to 500 nM. `COc1ccc(-n2c(C(=O)NCc3ncccn3)c3n(c2=O)CCN(C(=O)c2ccc(Br)c(Cl)c2)C3)cc1` [Example 157, 7-(4-bromo-3-chloro-benzoyl)-2-(4-methoxyphenyl)-3-oxo-N-(pyrimidin-2-ylmethyl)-6,8-dihydro-5H-imidazo[1,5-a]pyrazine-1-carboxamide]: the EC50 was more than 5000 nM.

`COc1ccc(-n2c(C(=O)NCc3ccc(OC(F)(F)F)cc3)c3n(c2=O)CCN(C(=O)c2ccc(Br)c(Cl)c2)C3)cc1` [Example 158, 7-(4-bromo-3-chloro-benzoyl)-2-(4-methoxyphenyl)-3-oxo-N-[[4-(trifluoromethoxy)phenyl]methyl]-6,8-dihydro-5H-imidazo[1,5-a]pyrazine-1-carboxamide] came in with an EC50 of 100 to 500 nM. For `COc1ccc(CNC(=O)c2c3n(c(=O)n2-c2ccc(C#N)cc2)CCN(C(=O)c2ccc(Br)c(Cl)c2)C3)c(C)c1` [Example 163, 7-(4-bromo-3-chloro-benzoyl)-2-(4-cyanophenyl)-N-[(4-methoxy-2-methyl-phenyl)methyl]-3-oxo-6,8-dihydro-5H-imidazo[1,5-a]pyrazine-1-carboxamide], the 50% effective concentration (EC50) fell in the range of 500 to 5000 nM. Compound `COc1ccc(CNC(=O)c2c3n(c(=O)n2-c2ccc(C#N)cc2)CCN(C(=O)c2ccc(Br)c(Cl)c2)C3)c(F)c1` [Example 164, 7-(4-bromo-3-chloro-benzoyl)-2-(4-cyanophenyl)-N-[(2-fluoro-4-methoxy-phenyl)methyl]-3-oxo-6,8-dihydro-5H-imidazo[1,5-a]pyrazine-1-carboxamide] registered an EC50 of 500 to 5000 nM. To `COC(=O)c1cccc(CNC(=O)c2c3n(c(=O)n2-c2ccc(OC)cc2)CCN(C(=O)c2ccc(Br)c(Cl)c2)C3)c1` [Example 165, methyl 3-[[[7-(4-bromo-3-chloro-benzoyl)-2-(4-methoxyphenyl)-3-oxo-6,8-dihydro-5H-imidazo[1,5-a]pyrazine-1-carbonyl]amino]methyl]benzoate] belongs 100 to 500 nM; to `COc1ccc(-n2c(C(=O)NCc3cccc4cccnc34)c3n(c2=O)CCN(C(=O)c2ccc(Br)c(Cl)c2)C3)cc1` [Example 166, 7-(4-bromo-3-chloro-benzoyl)-2-(4-methoxyphenyl)-3-oxo-N-(8-quinolylmethyl)-6,8-dihydro-5H-imidazo[1,5-a]pyrazine-1-carboxamide], 100 to 500 nM; to `COc1ccc(-n2c(C(=O)NCc3ccccc3-n3cccn3)c3n(c2=O)CCN(C(=O)c2ccc(Br)c(Cl)c2)C3)cc1` [Example 167, 7-(4-bromo-3-chloro-benzoyl)-2-(4-methoxyphenyl)-3-oxo-N-[(2-pyrazol-1-ylphenyl)methyl]-6,8-dihydro-5H-imidazo[1,5-a]pyrazine-1-carboxamide], less than 100 nM.

Turning to `COc1ccc(-n2c(C(=O)NCc3cnccn3)c3n(c2=O)CCN(C(=O)c2ccc(Br)c(Cl)c2)C3)cc1` [Example 171, 7-(4-bromo-3-chloro-benzoyl)-2-(4-methoxyphenyl)-3-oxo-N-(pyrazin-2-ylmethyl)-6,8-dihydro-5H-imidazo[1,5-a]pyrazine-1-carboxamide], the EC50 was more than 5000 nM. Regarding `COc1ccc(-n2c(C(=O)NCc3ccc(C#N)cc3)c3n(c2=O)CCN(C(=O)c2ccc(Br)c(Cl)c2)C3)cc1` [Example 180, 7-(4-bromo-3-chloro-benzoyl)-N-[(4-cyanophenyl)methyl]-2-(4-methoxyphenyl)-3-oxo-6,8-dihydro-5H-imidazo[1,5-a]pyrazine-1-carboxamide], the EC50 lay in the range of 500 to 5000 nM.

Take `COc1ccc(-n2c(C(=O)NCc3ccccc3F)c3n(c2=O)CCN(C(=O)c2ccc(Br)c(Cl)c2)C3)cc1` [Example 181, 7-(4-bromo-3-chloro-benzoyl)-N-[(2-fluorophenyl)methyl]-2-(4-methoxyphenyl)-3-oxo-6,8-dihydro-5H-imidazo[1,5-a]pyrazine-1-carboxamide]: the EC50 fell in the range of 100 to 500 nM. The same measure for `COc1ccc(-n2c(C(=O)NCc3ccc4c(c3)OCO4)c3n(c2=O)CCN(C(=O)c2ccc(Br)c(Cl)c2)C3)cc1` [Example 182, N-(1,3-benzodioxol-5-ylmethyl)-7-(4-bromo-3-chloro-benzoyl)-2-(4-methoxyphenyl)-3-oxo-6,8-dihydro-5H-imidazo[1,5-a]pyrazine-1-carboxamide]: 100 to 500 nM; for `COc1ccc(-n2c(C(=O)NCc3ccc(CC(N)=O)cc3)c3n(c2=O)CCN(C(=O)c2ccc(Br)c(Cl)c2)C3)cc1` [Example 183, N-[[4-(2-amino-2-oxo-ethyl)phenyl]methyl]-7-(4-bromo-3-chloro-benzoyl)-2-(4-methoxyphenyl)-3-oxo-6,8-dihydro-5H-imidazo[1,5-a]pyrazine-1-carboxamide]: 500 to 5000 nM. To `CC(C)Oc1ccc(-n2c(C(=O)NCc3ccccc3)c3n(c2=O)CCN(C(=O)c2ccc(Br)c(Cl)c2)C3)cc1` [Example 184, N-benzyl-7-(4-bromo-3-chloro-benzoyl)-2-(4-isopropoxyphenyl)-3-oxo-6,8-dihydro-5H-imidazo[1,5-a]pyrazine-1-carboxamide] belongs 100 to 500 nM; to `COc1ccc(CNC(=O)c2c3n(c(=O)n2-c2ccc(OC(C)C)cc2)CCN(C(=O)c2ccc(Br)c(Cl)c2)C3)cc1` [Example 185, 7-(4-bromo-3-chloro-benzoyl)-2-(4-isopropoxyphenyl)-N-[(4-methoxyphenyl)methyl]-3-oxo-6,8-dihydro-5H-imidazo[1,5-a]pyrazine-1-carboxamide], 100 to 500 nM. To `CCS(=O)(=O)c1cccc(CNC(=O)c2c3n(c(=O)n2-c2ccc(OC(C)C)cc2)CCN(C(=O)c2ccc(Br)c(Cl)c2)C3)c1` [Example 186, 7-(4-bromo-3-chloro-benzoyl)-N-[(3-ethylsulfonylphenyl)methyl]-2-(4-isopropoxyphenyl)-3-oxo-6,8-dihydro-5H-imidazo[1,5-a]pyrazine-1-carboxamide] belongs 500 to 5000 nM. For the compound `COc1ccc(-n2c(C(=O)NCc3ccccn3)c3n(c2=O)CCN(C(=O)c2ccc(Br)c(Cl)c2)C3)cc1` [Example 191, 7-(4-bromo-3-chloro-benzoyl)-2-(4-methoxyphenyl)-3-oxo-N-(2-pyridylmethyl)-6,8-dihydro-5H-imidazo[1,5-a]pyrazine-1-carboxamide], the EC50 lay in the range of 500 to 5000 nM. The same measure for `COc1ccc(-n2c(C(=O)NCc3ccc(=O)[nH]c3)c3n(c2=O)CCN(C(=O)c2ccc(Br)c(Cl)c2)C3)cc1` [Example 192, 7-(4-bromo-3-chloro-benzoyl)-2-(4-methoxyphenyl)-3-oxo-N-[(6-oxo-1H-pyridin-3-yl)methyl]-6,8-dihydro-5H-imidazo[1,5-a]pyrazine-1-carboxamide]: more than 5000 nM; for `O=C(NCc1ccccc1)c1c2n(c(=O)n1-c1ccccc1)CCN(C(=O)c1ccc(Br)c(Cl)c1)C2` [Example 195, N-benzyl-7-(4-bromo-3-chloro-benzoyl)-3-oxo-2-phenyl-6,8-dihydro-5H-imidazo[1,5-a]pyrazine-1-carboxamide]: 500 to 5000 nM; for `CCOC(=O)Cc1ccc(CNC(=O)c2c3n(c(=O)n2-c2ccc(OC)cc2)CCN(C(=O)c2ccc(Br)c(Cl)c2)C3)cc1` [Example 196, ethyl 2-[4-[[[7-(4-bromo-3-chloro-benzoyl)-2-(4-methoxyphenyl)-3-oxo-6,8-dihydro-5H-imidazo[1,5-a]pyrazine-1-carbonyl]amino]methyl]phenyl]acetate]: more than 5000 nM. To `CC(C)Oc1ccc(-n2c(-c3ncc(-c4ccccc4)o3)c3n(c2=O)CCN(C(=O)c2ccc(Br)c(Cl)c2)C3)cc1` [Example 197, 7-(4-bromo-3-chloro-benzoyl)-2-(4-isopropoxyphenyl)-1-(5-phenyloxazol-2-yl)-6,8-dihydro-5H-imidazo[1,5-a]pyrazin-3-one] belongs more than 5000 nM; to `COc1ccc(-n2c(C(=O)NCc3ccc(OCC(=O)O)cc3)c3n(c2=O)CCN(C(=O)c2ccc(Br)c(Cl)c2)C3)cc1` [Example 204, 2-[4-[[[7-(4-bromo-3-chloro-benzoyl)-2-(4-methoxyphenyl)-3-oxo-6,8-dihydro-5H-imidazo[1,5-a]pyrazine-1-carbonyl]amino]methyl]phenoxy]acetic acid], more than 5000 nM. As for `COc1ccc(-n2c(C(=O)NCc3ccc(OCC(N)=O)cc3)c3n(c2=O)CCN(C(=O)c2ccc(Br)c(Cl)c2)C3)cc1` [Example 205, N-[[4-(2-amino-2-oxo-ethoxy)phenyl]methyl]-7-(4-bromo-3-chloro-benzoyl)-2-(4-methoxyphenyl)-3-oxo-6,8-dihydro-5H-imidazo[1,5-a]pyrazine-1-carboxamide], the EC50 was in the range of 500 to 5000 nM. The same measure for `COc1ccc(-n2c(C(=O)NCc3ccc(OC)cc3C3CC3)c3n(c2=O)CCN(C(=O)c2ccc(Br)c(Cl)c2)C3)cc1` [Example 210, 7-(4-bromo-3-chloro-benozyl)-N-[(2-cyclopropyl-4-methoxy-phenyl)methyl]-2-(4-methoxyphenyl)-3-oxo-6,8-dihydro-5H-imidazo[1,5-a]pyrazine-1-carboxamide]: 100 to 500 nM; for `COc1cc(CNC(=O)c2c3n(c(=O)n2-c2ccc(OC(C)C)cc2)CCN(C(=O)c2ccc(Br)c(Cl)c2)C3)ccc1C#N` [Example 211, 7-(4-bromo-3-chloro-benzoyl)-N-[(4-cyano-3-methoxy-phenyl)methyl]-2-(4-isopropxoyphenyl)-3-oxo-6,8-dihydro-5H-imidazo[1,5-a]pyrazine-1-carboxamide]: 500 to 5000 nM.
